# Measurements as given in US20140378460A1, “COMPOSITIONS AND METHODS FOR TREATING NEURODEGENERATIVE DISEASE” (COGNITION THERAPEUTICS, INC., priority 2011, published 2014).
# Read-outs that look alike come from different tables or passages of the source.
# Columns and labels:
# Sigma-2 receptors = conditions: cited from earlier work
# Sigma-1 receptors [1] = conditions: Table 11E, clinical compounds; first figure of S1/S2; read-out: Sigma Affinity (S1); cited from earlier work
# VAChT = VAChT (Homo sapiens, UniProt Q16572); conditions: cited from earlier work
# muscarinic M1, 2, D2 = conditions: cited from earlier work
# alpha1 AR, 5-HT1a/2, H1 = conditions: cited from earlier work
# sigma-2 receptor = conditions: 1 μM each; 18.4 nM [3H]-RHM-1
# [2] = system: caspase-3 in neuronal cultures; test: Caspase-3 activity in neurons; format: cell-based
# D2 = D2 (Homo sapiens, UniProt P14416); conditions: cited from earlier work
# alpha 1A, 1B = conditions: cited from earlier work
# [3] = system: Abeta oligomer-induced membrane trafficking deficits in primary hippocampal neurons; test: Membrane trafficking/exocytosis (MTT) assay; format: cell-based, rat
# Description: The methods used to generate the results were as follows in the Membrane Trafficking/Exocytosis (MTT) assay.
# Primary hippocampal neurons from E18 Sprague-Dawley rat embryos were plated at optimized concentrations in 384 well plates in NB media (Invitrogen). Neurons were maintained in cultures for 3 weeks, with twice weekly feeding of NB media with N2 supplement (Invitrogen).
# A test compound was added to cells at concentrations ranging from 100 uM to 0.001 nM followed by addition of vehicle or Abeta oligomer preparations (3 μM total Abeta protein concentration), and incubated for 1 to 24 hr at 37° C. in 5% CO2. MTT reagent (3-(4,5-dimethylthizaol-2-yl)-2,5diphenyl tetrazolium bromide) (Roche Molecular Biochemicals) was reconstituted in phosphate buffered saline to 5 mg/mL. 10 μl, of MTT labeling reagent is added to each well and incubated at 37° C. for 1 h, then imaged. Exocytosis was assessed by automated microscopy and image processing to quantify the amount of endocytosed and exocytosed formazan.
# Each assay plate was formatted so that compounds are tested with and without Abeta oligomer on each plate.
# Sigma-1 receptors [4] = target: T1, Sigma-1 receptors (UniProt Q60492); conditions: cited from earlier work
# T1 construct: other: known prior art compounds, published studies
# [5] = system: SKOV-3 human ovarian cancer cell line; test: MTS tumor cell viability assay; format: cell-based; conditions: by EC50 relative to siramesine
# Description: The cytotoxicity of compounds shown below was determined using the CellTiter96 Aqueous One Solution Assay (Promega, Madison, Wis.). […] The plate was read at 490 nm in a Victor3 plate reader (PerkinElmer Life and Analytical Sciences, Shelton, Conn.). The EC^50 value, defined as the concentration of the sigma ligand required to inhibit cell viability by 50% relative to untreated cells, was determined from the dose response curve for each cell line.
# [6] = system: caspase-3 in SKOV-3 human ovarian cancer cells; test: Caspase-3 activity in tumor cells; format: cell-based
# neuronal cultures = test: Neuronal nuclear intensity / morphology; conditions: 24 hours
# Chain of D2 (P14416 whole entry): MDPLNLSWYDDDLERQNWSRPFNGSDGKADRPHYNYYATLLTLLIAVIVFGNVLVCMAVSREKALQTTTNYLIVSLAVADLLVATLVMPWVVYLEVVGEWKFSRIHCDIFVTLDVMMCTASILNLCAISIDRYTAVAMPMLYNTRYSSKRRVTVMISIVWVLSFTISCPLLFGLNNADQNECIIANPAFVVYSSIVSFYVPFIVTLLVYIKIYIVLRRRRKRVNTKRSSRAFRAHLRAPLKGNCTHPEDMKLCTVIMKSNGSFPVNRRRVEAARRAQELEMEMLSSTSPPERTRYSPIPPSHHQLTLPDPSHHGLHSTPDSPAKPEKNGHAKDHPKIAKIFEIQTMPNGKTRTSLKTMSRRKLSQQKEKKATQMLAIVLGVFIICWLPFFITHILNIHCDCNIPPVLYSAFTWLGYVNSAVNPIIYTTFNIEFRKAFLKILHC
# Chain of VAChT (Q16572 whole entry, species assumed): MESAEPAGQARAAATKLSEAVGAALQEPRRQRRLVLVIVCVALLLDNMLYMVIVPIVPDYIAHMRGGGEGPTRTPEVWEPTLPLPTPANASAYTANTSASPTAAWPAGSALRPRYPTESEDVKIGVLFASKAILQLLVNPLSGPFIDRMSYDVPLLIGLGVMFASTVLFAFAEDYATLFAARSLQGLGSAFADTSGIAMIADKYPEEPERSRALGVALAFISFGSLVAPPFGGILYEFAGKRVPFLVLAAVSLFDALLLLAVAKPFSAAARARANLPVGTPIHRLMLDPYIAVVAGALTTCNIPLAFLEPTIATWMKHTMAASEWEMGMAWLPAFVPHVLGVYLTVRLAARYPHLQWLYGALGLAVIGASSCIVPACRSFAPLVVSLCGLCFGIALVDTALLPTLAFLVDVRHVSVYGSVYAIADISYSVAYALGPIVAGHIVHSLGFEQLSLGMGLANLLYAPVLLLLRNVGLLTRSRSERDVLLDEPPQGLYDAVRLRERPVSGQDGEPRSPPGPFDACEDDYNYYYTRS
SMILES,"Ki (Sigma-2 receptors; Table 11E, clinical compounds, second figure of S1/S2, read-out: Sigma Affinity (S2)) [nM]",Ki (Sigma-1 receptors [1]) [nM],Other Targets: VAChT (VAChT),"Other Targets: muscarinic M1, 2, D2 (muscarinic M1, 2, D2)","Other Targets: alpha1 AR, 5-HT1a/2, H1 (alpha1 AR, 5-HT1a/2, H1)",Displacement of [3H]-RHM-1 (sigma-2 receptor),Sigma 2 type of activity (Sigma-2 receptors; in brackets after the Ki),Caspase-3 activity induced in neurons [2],Other Targets: D2 (D2),"Other Targets: alpha 1A, 1B (alpha 1A, 1B)",Effect on Abeta oligomer trafficking deficits over the concentrations tested [3],"EC50 ([3]; Rattus norvegicus, Hippocampal neuron, Table 11C, known prior art compounds, read-out: Inhibition Abeta oligomer-induced Membrane Trafficking EC50) [nM]",Functional Neuronal Phenotype ([3]; Table 11C),"Ki (Sigma-1 receptors [4]; read-out: S1 binding Ki, Table 11C) [nM]","Ki (Sigma-1 receptors [4]; read-out: Sigma 1 Binding Ki, known prior art compounds, published studies) [nM]",Action [5],Caspase-3 activity induced in tumor cells [6],Nuclear morphology / nuclear intensity in neurons (neuronal cultures)
"COc1ccc(CCN2CCN(CCCc3ccccc3)CC2)cc1OC.Cl.Cl [Cutamesine, Cutamesine dihydrochloride]",> 1800,17,"VAChT(50 nM),","D2 (2 uM), alpha1",(2 uM),,,,,,,,,,,,,
Fc1ccc(-n2cc(CCCCN3CCC4(CC3)OCc3ccccc34)c3ccccc32)cc1 [siramesine],,,,,,partially displace,agonist,induced,"D2 (800 nM), alpha","1A, 1B (300 nM)","blocks Abeta oligomer trafficking deficits at low concentrations, but causes cellular toxicity at high concentrations",1300,Agonist,19,19,Full agonist,induced caspase-3 activity,caused significant abnormal nuclear morphology
